Experimental data reported in PMC12464775, “Selective and Potent Peptide Binders of RNF43 for Wnt Signaling Inhibition” (ACS Central Science, 2025).
Bridge positions count the residues as written; N and C are the ends. Peptide text beside a SMILES is read from it.

Legend:
deglycosylated RNF43 = target: T1, deglycosylated RNF43 (Homo sapiens, UniProt Q68DV7); assay: SPR binding to deglycosylated RNF43; details: biotinylated RNF43 treated with Deglycosylation Mix II, fitted data of representative sensorgram
T1 construct: ECD of the human RNF43 protein was incubated with EZ-link-NHS-PEG4-biotin; biotin (chemical label, NHS-PEG4-biotin)
T1 sequence (Q68DV7 24-197): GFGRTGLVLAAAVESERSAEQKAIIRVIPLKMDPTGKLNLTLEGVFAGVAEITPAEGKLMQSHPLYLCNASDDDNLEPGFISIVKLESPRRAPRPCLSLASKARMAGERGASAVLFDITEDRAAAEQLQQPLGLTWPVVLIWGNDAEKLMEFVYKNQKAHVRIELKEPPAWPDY
Description: (§1) SPR measurement was carried out using a Biacore S200 (Cytiva) instrument, with PBS-T (PBS with 0.05% Tween 20, pH 7.4) as the buffer. Biotinylated protein was captured on three sensor channels of Series S SA Sensors (Cytiva). The sensors were then blocked with 0.1 mg/mL biotin. DCPs were injected onto the sensor in a 3× concentration series. The data were double-referenced by subtracting the signal from a sensor channel coated with biotin only and the signal from a buffer injection. For data analysis, binding data were fitted using the manufacturer’s software. ,
Protein deglycosylation was performed on a small scale using Deglycosylation Mix II (P6044, NEB), according to the manufacturer’s instructions. Briefly, the biotinylated RNF43 was incubated with Deglycosylation Mix II for 1 h at RT. Then the reaction mixture was transferred to 37 °C and further incubated overnight. Following incubation, the reaction mixture was analyzed by mobility shift on SDS-PAGE gels. After dialysis, the protein was then used for further applications.

mouse RNF43 = target: T2, mouse RNF43 (Mus musculus, UniProt Q5NCP0); assay: SPR binding of DCPs to mouse RNF43; details: independently performed at least three times
T2 sequence (Q5NCP0 24-197 limits assumed): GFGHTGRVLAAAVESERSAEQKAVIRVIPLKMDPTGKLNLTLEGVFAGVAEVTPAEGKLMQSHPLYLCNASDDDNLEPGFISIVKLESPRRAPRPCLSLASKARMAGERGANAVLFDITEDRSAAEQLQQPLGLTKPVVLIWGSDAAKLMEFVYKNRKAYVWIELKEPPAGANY
Description: as §1

human RNF43 = target: T3, human RNF43 (Homo sapiens, UniProt Q68DV7); assay: SPR binding of DCPs to immobilized human RNF43 ECD; details: SPR, Biacore S200, biotinylated human RNF43 captured on SA sensor, DCP injected, PBS-T pH 7.4; independently performed at least three times; NB = no binding
T3 construct: ECD of the human RNF43 protein was incubated with EZ-link-NHS-PEG4-biotin; biotin (chemical label, NHS-PEG4-biotin on amines, 1-2 per protein)
T3 sequence (Q68DV7 24-197 limits assumed): T1 sequence (Q68DV7 24-197)
Description: ECD of the human RNF43 protein was incubated with EZ-link-NHS-PEG4-biotin (Thermo Fisher, 1:1, 50 μM) for 1 h at room temperature (RT). The reaction was quenched by addition of 10 mM Glycine, followed by dialysis into phosphate buffered saline (PBS) overnight at 4 °C. Finally, the biotinylated protein was analyzed using LC-MS to ensure that each protein is labeled with 1–2 biotin molecules. ,
as §1

## CC[C@H](C)[C@H](NC(=O)[C@@H]1CSSC[C@H](NC(=O)[C@@H](NC(=O)[C@H](Cc2c[nH]cn2)NC(=O)[C@H](CO)NC(=O)[C@H](Cc2ccc(O)cc2)NC(=O)[C@H](CC(=O)O)NC(=O)[C@H](Cc2c[nH]cn2)NC(=O)[C@@H]2CSSC[C@H](NC(=O)[C@H](CCC(N)=O)NC(=O)[C@@H](N)CCC(=O)O)C(=O)N[C@@H]([C@@H](C)O)C(=O)N[C@@H](CO)C(=O)N[C@@H]([C@@H](C)O)C(=O)N[C@@H](CCC(N)=O)C(=O)N[C@@H](CC(=O)O)C(=O)N[C@@H](CC(C)C)C(=O)N2)C(C)C)C(=O)N[C@H]2CSSC[C@H](NC(=O)[C@H](CC(=O)O)NC(=O)[C@H](CC(C)C)NC(=O)[C@@H]3CCCN3C(=O)[C@H](Cc3c[nH]c4ccccc34)NC2=O)C(=O)N[C@@H](CCCNC(=N)N)C(=O)N[C@@H](Cc2c[nH]c3ccccc23)C(=O)N[C@@H](C)C(=O)N[C@@H](C(C)C)C(=O)N[C@@H](CCCCN)C(=O)N[C@@H](Cc2ccc(O)cc2)C(=O)N[C@@H](CCC(N)=O)C(=O)N[C@@H](Cc2c[nH]c3ccccc23)C(=O)N[C@@H](Cc2ccccc2)C(=O)N[C@@H](Cc2c[nH]c3ccccc23)C(=O)N[C@@H](CC(=O)O)C(=O)N1)C(=O)NCC(=O)O [GUR-1.6.12.2] (H-EQCTSTQDLCHDYSHVCCWPLDCRWAVKYQWFWDCIG-OH; disulfide 3-10, 17-35, 18-23)
Deglycosylated RNF43
  KD against deglycosylated RNF43: remained unchanged
Mouse RNF43
  Kd: 2.1 ± 0.2 nM
Human RNF43
  KD (h, nM): single-digit nanomolar
